Reference: US20110091375A1, “USE OF THE COMBINATION COMPRISING TEMOZOLOMIDE AND TNF-ALPHA FOR TREATING GLIOBLASTOMA” (THE UNIVERSITY OF CHICAGO, priority 2004, published 2011)
Entries after “also recorded” stand apart in the source; their conditions may differ.

What was measured:
[1] = test system: U87 cells; test: U87 cell viability (Trypan Blue dye exclusion, MTS); type: cell-based, human; settings: 10 ng/mL TNFα and/or 100 μM TMZ
Method: Trypan Blue dye exclusion method was employed. 10^4 U87 cells were plated and incubated at 37° C. overnight. Subsequently, the cells were contacted with media containing TNFα (10 ng/mL) and/or TMZ (100 μM), incubated for 3 h, and washed. […] All of the studies were performed in triplicate.

[2] = test system: JNK; test: JNK phosphorylation (activation), Western blot; type: cell-based, human; settings: glioma cells
Method: 20 μg of whole U87 cell (or nuclear) lysate was subjected to sodium dodecyl sulfate (SDS)-polyacrylamide gel electrophoresis (PAGE). Following electro-transfer, Immobilon-P membranes (Millipore Corp. Burlington, Mass., USA.) were probed with primary polyclonal antibody against IκBα, phospho-Ser32-IκBα, SAPK/JNK, phospho-Thr183/Tyr185-SAPK/JNK, p65, phospho-Ser536-p65 (Cell Signaling Technology Inc. Beverly, […]., USA) diluted 1:1000 overnight at 4° C. Anti-rabbit IgG HRP-linked secondary antibody (Cell Signaling Technology) was diluted 1:1000 in blocking buffer and applied for 1 h at room temperature. Immunoreactive bands were detected by SuperSignal enhanced chemiluminescence (ECL) (Pierce, Rockford, Ill., USA) and exposed to Kodak X-Omat film.

[3] = test system: NF-κB in U87 glioma cells; test: NF-κB-responsive luciferase reporter assay, U87; type: cell-based, human
Method: U87 cells (5×10^3) were plated overnight and subsequently co-transfected with Ig-κB-Luc (or pE425 GL3) and the Renilla reniformis expression vector, pRL-TK, to normalize transfection efficiency, at a ratio of 10:1 using SuperFectin transfection kit (Qiagen, Valencia, Calif., USA). Twenty-four hours after transfection, the cells were pretreated with TMZ (100 μM) for 16 h, then treated with TNFα (10 ng/mL). Five hours later NF-κB (or Egr-1) and Renilla luciferase activity were measured with the Dual-Luciferase reporter assay system (Promega Corp., Madison, Wis., USA). Relative luciferase was calculated as the ratio of firefly luminescence/Renilla luminescence for each sample.

[4] = test system: NF-κB; test: NF-κB nuclear translocation and DNA binding (nuclear extracts, EMSA); type: cell-based, human
Method: Confluent cultures of U87 cells were grown in complete medium and then left untreated or treated with 10 ng/mL TNFα for 20 m and 1 h+/−16 h pre-treatment with 100 μM TMZ (or 0.1% DMSO control vehicle). Cells were then washed with 10 mL ice-cold PBS, scraped from the dish, and pelleted by centrifugation at 1000 rpm for 5 m at 4° C. Cell pellets were resuspended in 400 μl of ice-cold buffer A (10 mM HEPES, pH 7.9; 10 mM KCl; 0.1 mM EDTA; 1 mM DTT; 0.5 mM phenylmethysulfonylfluoride [PMSF]; 1 μg/mL leupeptin; 5 μg/mL aprotinin) and allowed to swell on ice for 15 m. Following the addition of 25 μl of 10% NP-40, the suspension was vortexed for 10 s and centrifuged at 14,500 rpm for 1 m at 4° C. Nuclei were resuspended in 50 μl of ice-cold buffer B (20 mM HEPES, pH 7.9; […]; 1 mM EDTA; 1 mM DTT; 1 mM PMSF; 25% glycerol; 1 μg/mL leupeptin; 5 μg/mL aprotinin) and incubated on ice for 15 m. […] Protein concentrations for each sample were determined by the Bradford method (Bio-Rad, Richmond, Calif., USA) and were adjusted to 2 μg/μl by the addition of buffer B. […]
20 μg of whole U87 cell (or nuclear) lysate was subjected to sodium dodecyl sulfate (SDS)-polyacrylamide gel electrophoresis (PAGE). […] Immunoreactive bands were detected by SuperSignal enhanced chemiluminescence (ECL) (Pierce, Rockford, Ill., USA) and exposed to Kodak X-Omat film.

[5] = test system: NF-κB in glioma cells; test: IR- and TNFα-induced NF-κB activity and nuclear translocation; type: cell-based; settings: co-treatment with TNFα and IR

## Cn1nnc2c(C(N)=O)ncn2c1=O [TMZ, temozolomide]
[1]
  effect on U87 cell viability: Minimal effects
[2]
  JNK phosphorylation (activation): progressive and delayed activation
[3]; U87, TMZ pre-treatment
  TNFα-induced NF-κB transcriptional activity: dose dependent inhibition; also recorded: completely inhibited
[3]; glioma cells, no TNFα
  transcriptional activity of NF-κB, TMZ used alone: slightly increases
[4]
  TNFα-induced NF-κB DNA binding: does not directly affect
[4]; glioma cells
  TNFα-induced NF-κB nuclear translocation: inhibiting NF-κB nuclear translocation
[5]
  NF-κB transcriptional activity and nuclear translocation increased by TNFα and IR: inhibited
